Test results as given in patent US20240228499A1, “MASP-2 INHIBITORS AND METHODS OF USE” (Omeros Corporation, priority 2022, published 2024).
Structures can show the parent of a compound that is named as a salt.

Assays:
[1] = molecular target: T1, human a-thrombin (Homo sapiens, UniProt P00734); assay: Enzymatic assay for thrombin (fluorogenic peptide substrate Boc-VPR-AMC); assay type: biochemical; conditions: room temperature, 20 mM Hepes pH 7.4, 20 min
T1 construct: enzyme (human a-thrombin (BioPharm® Lab.)); purchased BioPharm Lab
Protocol: The thrombin assay utilizes a fluorogenic peptide substrate (Boc-VPR-AMC (R&D Systems) and was run at room temperature in an assay buffer containing 20 mM Hepes, pH 7.4, 140 mM NaCl and 0.1% Tween 20. Assay parameters were adjusted such that the assay was linear with respect to time, enzyme, and substrate concentrations. Under these optimized assays conditions, IC50 values were equivalent to Ki values, except in a few cases of “tight binding” inhibitors. Cases of “tight binding” or possible “slow binding” inhibitors were handled by the methods described in Copeland R.A. (2013) Evaluation of Enzyme Inhibitors in Drug Discovery. 2nd Ed. John Wiley and Sons, Inc., Chapters 5-7.
The thrombin assay protocol was carried out as follows. Test compounds were serially diluted in DMSO and then 100 nL of each dilution was transferred to the assay plate(s). 10 μL of Assay Buffer was added, followed by 15 μL of enzyme (human a-thrombin (BioPharm® Lab.)) in assay buffer. 15 μL of substrate in assay buffer was then added and the sample mixed to start the reaction. After 20 min at room temperature, 15 μL of a stop solution (0.1 M acetic acid) was added, the sample was mixed, and the plates were read on a SpectraMax® i3× Microplate Reader with the data exported as Excel files. Each assay plate included a “no inhibitor” (DMSO only) control, a “no enzyme” control, and a reference inhibitor control. % Activity values=100*(ave. test comp. fluorescence−ave. “no enz” fluorescence)/(ave. “DMSO only” fluorescence−ave. “no enz” fluorescence). IC50 and Ki values were very reproducible, with values falling well within +2-fold.

[2] = molecular target: T2, MASP-2 (CCP1-CCP2-SP) (Homo sapiens, UniProt O00187); assay: Enzymatic assay for MASP-2 inhibitory activity (fluorogenic substrate); assay type: biochemical; conditions: room temperature, 20 mM Hepes pH 7.4, 20 min
T2 construct: 15 μL of Enzyme MASP-2 (CCP1-CCP2-SP) in Assay Buffer
Protocol: The MASP-2 assay utilizes a fluorogenic substrate, based on the cleavage site for its natural substrate C2. The assay was run at room temperature in an assay buffer containing 20 mM HEPES, pH 7.4, 140 mM NaCl and 0.1% Tween 20. Assay parameters were adjusted such that the assay was linear with respect to time, enzyme, and substrate concentrations. Under the optimized assays conditions, IC50 values were equivalent to Ki values, except in the few cases of “tight binding” inhibitors. Cases of “tight binding” or possible “slow binding” inhibitors were handled by the methods described in Copeland R. A. (2013) Evaluation of Enzyme Inhibitors in Drug Discovery. 2nd Ed., John Wiley and Sons, Inc., Chapters 5-7.
The MASP-2 assay protocol was carried out as follows. Test compounds were serially diluted in DMSO and then 100 nL of each dilution was transferred to the assay plate(s). 10 μL of Assay Buffer was added, followed by 15 μL of Enzyme MASP-2 (CCP1-CCP2-SP) in Assay Buffer. 15 μL of Substrate in Assay Buffer was then added and the mixture was mixed to start the reaction. After 20 min at room temperature, 15 μL of a stop solution (0.1 M acetic acid) was added, the sample was mixed, and the plates were read on a SpectraMax i3× Microplate Reader with the data exported as an Excel file. Each assay plate included a “no inhibitor” (DMSO only) control, a “no enzyme” control, and a reference inhibitor control. % Activity values=100*(average test comp. fluorescence−average “no enzyme” fluorescence)/(average “DMSO only” fluorescence−average “no enzyme” fluorescence). IC50 and Ki replicate values were very reproducible, with values well within +2-fold.

T2 sequence (O00187 287-686 limits assumed): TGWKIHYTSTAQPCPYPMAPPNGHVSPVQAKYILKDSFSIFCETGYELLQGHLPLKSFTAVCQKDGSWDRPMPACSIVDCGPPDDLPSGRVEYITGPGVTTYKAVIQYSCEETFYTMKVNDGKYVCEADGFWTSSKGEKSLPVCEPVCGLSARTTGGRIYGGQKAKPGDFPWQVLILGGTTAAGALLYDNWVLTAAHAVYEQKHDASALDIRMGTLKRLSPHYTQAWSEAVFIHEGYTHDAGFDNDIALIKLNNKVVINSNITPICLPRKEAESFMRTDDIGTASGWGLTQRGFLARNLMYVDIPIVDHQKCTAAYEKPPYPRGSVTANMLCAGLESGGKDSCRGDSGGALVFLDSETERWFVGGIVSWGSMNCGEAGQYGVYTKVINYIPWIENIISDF

Compound	Ki [1]	Ki [2]
Cc1cc(C)cc(CNc2cnc3n(c2=O)[C@H](C(=O)NCc2ccc(N)nc2)CC3)c1 [Compound 4, (S)—N-((6-aminopyridin-3-yl)methyl)-3-((3,5-dimethylbenzyl)amino)-4-oxo-4,6,7,8-tetrahydropyrrolo[1,2-a]pyrimidine-6-carboxamide]	500 to 2500 nM	< 500 nM
Cc1cc(C)cc(CNc2cnc3n(c2=O)[C@H](C(=O)NCc2ccc(N)nc2C)CC3)c1 [Compound 1, (S)—N-((6-amino-2-methylpyridin-3-yl)methyl)-3-((3,5-dimethylbenzyl)amino)-4-oxo-4,6,7,8-tetrahydropyrrolo[1,2-a]pyrimidine-6-carboxamide]	500 to 2500 nM	< 500 nM
COc1c(F)cc(F)cc1CNc1cnc2n(c1=O)[C@H](C(=O)NCc1ccc(N)nc1C)CC2 [Compound 35, (S)-N-((6-amino-2-methylpyridin-3-yl)methyl)-3-((3,5-difluoro-2-methoxybenzyl)amino)-4-oxo-4,6,7,8-tetrahydropyrrolo[1,2-a]pyrimidine-6-carboxamide, trifluoroacetate]	500 to 2500 nM	< 500 nM
N#Cc1cc(Cl)cc(CNc2cnc3n(c2=O)[C@H](C(=O)N[C@@H]2CCc4nc(N)ccc42)CC3)c1 [Compound 89, (S)-N-((R)-2-amino-6,7-dihydro-5H-cyclopenta[b]pyridin-5-yl)-3-((3-chloro-5-cyanobenzyl)amino)-4-oxo-4,6,7,8-tetrahydro-pyrrolo[1,2-a]pyrimidine-6-carboxamide]	< 500 nM	< 500 nM
Cc1nc(N)ccc1CNC(=O)[C@@H]1CCc2ncc(NCc3cccc(OC(F)(F)F)c3F)c(=O)n21 [Compound 39, (S)-N-((6-amino-2-methylpyridin-3-yl)methyl)-3-((2-fluoro-3-(trifluoromethoxy)benzyl)amino)-4-oxo-4,6,7,8-tetrahydro-pyrrolo[1,2-a]pyrimidine-6-carboxamide, di-trifluoroacetate]	500 to 2500 nM	< 500 nM
Cc1ccc(CNc2cnc3n(c2=O)[C@H](C(=O)NCc2ccc(N)nc2C)CC3)cc1 [Compound 61]	2500 to 10000 nM	< 500 nM
Cc1nc(N)ccc1CNC(=O)[C@@H]1CCc2ncc(NCc3cccc(OC4CC4)c3)c(=O)n21 [Compound 37, (S)-N-((6-amino-2-methylpyridin-3-yl)methyl)-3-((3-cyclopropoxybenzyl)amino)-4-oxo-4,6,7,8-tetrahydropyrrolo[1,2-a]pyrimidine-6-carboxamide, trifluoroacetate]	< 500 nM	< 500 nM
N#Cc1cc(F)cc(CNc2cnc3n(c2=O)[C@H](C(=O)N[C@@H]2CCc4nc(N)ccc42)CC3)c1 [Compound 93, (S)-N-((R)-2-amino-6,7-dihydro-5H-cyclopenta[b]pyridin-5-yl)-3-((3-cyano-5-fluorobenzyl)amino)-4-oxo-4,6,7,8-tetrahydro-pyrrolo[1,2-a]pyrimidine-6-carboxamide]	500 to 2500 nM	< 500 nM
Cc1cc(Cl)cc(CNc2cnc3n(c2=O)[C@H](C(=O)NCc2ccc(N)nc2C)CC3)c1 [Compound 55, (S)-N-((6-amino-2-methylpyridin-3-yl)methyl)-3-((3-chloro-5-methylbenzyl)amino)-4-oxo-4,6,7,8-tetrahydropyrrolo[1,2-a]pyrimidine-6-carboxamide]	< 500 nM	< 500 nM
Cc1cccc(CNc2cnc3n(c2=O)[C@H](C(=O)NCc2ccc(N)nc2C)CC3)c1C [Compound 30, (S)-N-((6-amino-2-methylpyridin-3-yl)methyl)-3-((2,3-dimethylbenzyl)amino)-4-oxo-4,6,7,8-tetrahydropyrrolo[1,2-a]pyrimidine-6-carboxamide, trifluoroacetate]	500 to 2500 nM	< 500 nM
CCOc1cccc(CNc2cnc3n(c2=O)[C@H](C(=O)NCc2ccc(N)nc2C)CC3)c1 [Compound 57, (S)—N-((6-amino-2-methylpyridin-3-yl)methyl)-3-((3-ethoxybenzyl)amino)-4-oxo-4,6,7,8-tetrahydropyrrolo[1,2-a]pyrimidine-6-carboxamide]	500 to 2500 nM	< 500 nM
Cc1cc(C)cc(CNc2cnc3n(c2=O)[C@H](C(=O)N[C@@H](C)c2cc4c(s2)CNC4)CC3)c1 [Compound 107]	> 25000 nM	< 500 nM
Cc1nc(N)ccc1CNC(=O)[C@@H]1CCc2ncc(NCc3cccc(F)c3C)c(=O)n21 [Compound 63]	500 to 2500 nM	< 500 nM
Cc1nc(N)ccc1CNC(=O)[C@@H]1CCc2ncc(NCc3cccc(CC#N)c3)c(=O)n21 [Compound 80, (S)-N-((6-amino-2-methylpyridin-3-yl)methyl)-3-((3-(cyanomethyl)benzyl)amino)-4-oxo-4,6,7,8-tetrahydropyrrolo[1,2-a]pyrimidine-6-carboxamide]	500 to 2500 nM	< 500 nM
Cc1cc(Cl)cc(CNc2cnc3n(c2=O)[C@H](C(=O)NCc2cccnc2)CC3)c1 [Compound 66]	> 25000 nM	500 to 2500 nM
COc1ccc(C)cc1CNc1cnc2n(c1=O)[C@H](C(=O)NCc1ccc(N)nc1C)CC2 [Compound 9, (S)-N-((6-amino-2-methylpyridin-3-yl)methyl)-3-((2-methoxy-5-methylbenzyl)amino)-4-oxo-4,6,7,8-tetrahydropyrrolo[1,2-a]pyrimidine-6-carboxamide, trifluoroacetate]	2500 to 10000 nM	< 500 nM
Cc1nc(N)ccc1CNC(=O)[C@@H]1CCc2ncc(NCc3cc(F)cc(Cl)c3)c(=O)n21 [Compound 56, (S)—N-((6-amino-2-methylpyridin-3-yl)methyl)-3-((3-chloro-5-fluorobenzyl)amino)-4-oxo-4,6,7,8-tetrahydropyrrolo[1,2-a]pyrimidine-6-carboxamide]	500 to 2500 nM	< 500 nM
Cc1nc(N)ccc1CNC(=O)[C@@H]1CCc2ncc(NCc3cnn(-c4ccccc4)c3)c(=O)n21 [Compound 24, (S)—N-((6-amino-2-methylpyridin-3-yl)methyl)-4-oxo-3-(((1-phenyl-1H-pyrazol-4-yl)methyl)amino)-4,6,7,8-tetrahydropyrrolo[1,2-a]pyrimidine-6-carboxamide, trifluoroacetate]	10000 to 25000 nM	< 500 nM
COc1cc(CNc2cnc3n(c2=O)[C@H](C(=O)NCc2ccc(N)nc2C)CC3)ccc1C [Compound 45, (S)-N-((6-amino-2-methylpyridin-3-yl)methyl)-3-((3-methoxy-4-methylbenzyl)amino)-4-oxo-4,6,7,8-tetrahydropyrrolo[1,2-a]pyrimidine-6-carboxamide, trifluoroacetate]	500 to 2500 nM	< 500 nM
Cc1nc(N)ccc1CNC(=O)[C@@H]1CCc2ncc(NCc3c(F)cccc3F)c(=O)n21 [Compound 32, (S)-N-((6-amino-2-methylpyridin-3-yl)methyl)-3-((2,6-difluorobenzyl)amino)-4-oxo-4,6,7,8-tetrahydropyrrolo[1,2-a]pyrimidine-6-carboxamide, di-trifluoroacetate]	10000 to 25000 nM	< 500 nM
Cc1nc(N)ccc1CNC(=O)[C@@H]1CCc2ncc(NCc3cccc(C(=O)O)c3)c(=O)n21 [Compound 13, (S)-3-(((6-(((6-amino-2-methylpyridin-3-yl)methyl)carbamoyl)-4-oxo-4,6,7,8-tetrahydropyrrolo[1,2-a]pyrimidin-3-yl)amino)methyl)benzoic acid]	10000 to 25000 nM	< 500 nM
Cc1nc(N)ccc1CNC(=O)[C@@H]1CCc2ncc(NCc3cccc(Cl)c3)c(=O)n21 [Compound 58]	500 to 2500 nM	< 500 nM
CCc1cccc(CNc2cnc3n(c2=O)[C@H](C(=O)NCc2ccc(N)nc2C)CC3)c1 [Compound 26]	500 to 2500 nM	< 500 nM
